{"source": "patent US20090281025A1", "about": "“INHIBITION OF TUMOR GROWTH AND METASTASIS BY ATF2-DERIVED PEPTIDES” (Mount Sinai School Of Medicine of New York University, priority 2004, published 2009)", "key": {"[1]": {"tested_on": "SW1 tumors", "assay": "cDNA microarray gene expression profiling of SW1 tumors", "format": "in vivo, mouse", "excerpt": "FIGS. 8A and 8B show gene profiling analysis of SW1 tumors expressing the ATF2^51-100 peptide. Tumors generated, in the absence or presence of a peptide, were used as source of mRNA for array analysis of 10K mouse genes (see Example 5). […] In all cases, the data represent analyses carried out 4 times from 4 different pools of tumors.\nTo elucidate the molecular pathways affected by expression of the ATF2^51-100 peptide, we used cDNA microarray analysis to compare the RNA expression profiles of SW1 tumors that express this peptide or a control vector (FIG. 8A). The 10k mouse Gem 2 gene set (Incyte Genomics Inc, Palo Alto, Calif.) was printed at the NCI on poly-L-lysine-coated glass using a Biorobotics TASII arrayer (Cambridge, England). All protocols for manufacturing and hybridization of microarrays are posted on the NCI web site (see, e.g., nciarray.nci.nih.gov). Approximately 20 μg of total RNA were used in the reverse transcription reaction to directly label the probe with Cy-5 dUTP or Cy-3 dUTP (Amersham). Hybridizations were performed at 65° C. for 12-18 h in a hybridization volume of 35 μL. The hybridized arrays were scanned using an Axon GenePix 4000 scanner (Union City, Calif.) and fluorescence data were collected using the GenePix software.\nmRNA was prepared from a pool of 4 tumors obtained from two different experiments. In both cases, tumors were excised 2 weeks after subcutaneous injection of cells. Because the fluorescently labeled Cy dyes may incorporate into the reverse-transcribed cDNA with different efficiencies, RNA isolated from both cell types was always labeled with both combinations of Cy dyes. […] SW1 vector control cells were labeled with Cy-3 (F532) and the SW1-ATF 51-100 cells were labeled with Cy-5 (F635)."}, "[2]": {"tested_on": "TRE-Luc", "assay": "TRE-Luc luciferase reporter assay in SW1 cells", "format": "cell-based, mouse", "conditions": "SW1 cells expressing peptide, luciferase after 18 hours", "method": "SW1 cells constitutively expressing the indicated ATF2 peptides were transfected with either TRE-Luc (FIG. 5A) or with Jun2-Luc (FIG. 5B), and proteins were prepared for analysis of luciferase activity after 18 hours. Analysis was performed in duplicate, and the data reflect three independent experiments. SW1 cells expressing the ATF2 peptides were analyzed to establish the degree of spontaneous (basal) apoptosis as well as apoptosis 24 hours following treatment with the chemotherapeutic drug UCN-01 (FIG. 5C). The data represent triplicate analysis reproduced three times.\nAlteration of ATF2 Transcriptional Activity. Assessed next was whether the short peptide caused any change in transcriptional activity mediated by ATF2 and its heterodimeric partners, using the TRE and Jun2 promoter sequences linked to the Luciferase marker gene. These reporter constructs (0.3 μg) were cotransfected with the respective expression vectors into melanoma cells (5×10^5) using Lipofectamine (Invitrogen). Luciferase activity was measured using the Luciferase assay system (Promega)."}, "[3]": {"conditions": "tumors expressing peptide vs control vector"}}, "note": "Values joined by “and” are separate entries in the source; they are usually repeats but may differ in a detail not shown here. Equal entries are not always repeated.", "data": [{"substance": "ATF2^51-100: amino-terminal peptide of ATF2, amino acid residue 51 to 100 (about a 50 amino acid peptide), expressed in tumor cells (MTLKFGPARNDSVIVADQTPTPTRFLKNCEEVGLFNELASPFENEFKKAS; UniProt P15336 51-100, looked up, fragment)", "values": [{"measurement": "Ratio ATFp2-Cy5 vs parental control-Cy3: Myo5b (myosin Vb)", "setting": "[1]; down regulated, IMAGE: 1378935, hybridizations #1-#4, listed as ATFp2", "result": "0.2748 and 0.2758 and 0.2551 and 0.2439"}, {"measurement": "Ratio ATFp2-Cy5 vs parental control-Cy3: Mtap6 (microtubule-associated protein 6)", "setting": "[1]; down regulated, IMAGE: 1430217, hybridizations #1-#4, listed as ATFp2", "result": "0.3697 and 0.3710 and 0.5261 and 0.7243"}, {"measurement": "expression of Fas-associated genes", "setting": "[1]; [3]", "result": "down-regulation"}, {"measurement": "expression of growth-associated genes (epidermal growth factor, hepatoma-derived growth factor, insulin-like growth factor) and interferon-associated genes", "setting": "[1]; [3]", "result": "consistent down-regulation"}, {"measurement": "expression of tumor necrosis factor-related genes", "setting": "[1]; [3]", "result": "strongly upregulated"}, {"measurement": "Ratio ATFp2-Cy5 vs parental control-Cy3: Kifap3 (kinesin-associated protein 3)", "setting": "[1]; upregulated, IMAGE: 331395, hybridizations #1-#4, listed as ATFp2", "result": "2.1192 and 2.1268 and 2.9811 and 3.9220"}, {"measurement": "Ratio ATFp2-Cy5 vs parental control-Cy3: Hbb-b1 (hemoglobin, beta adult major chain)", "setting": "[1]; upregulated, IMAGE: 332935, hybridizations #1-#4, listed as ATFp2", "result": "3.1997 and 3.2112 and 2.7725 and 3.6146"}, {"measurement": "Ratio ATFp2-Cy5 vs parental control-Cy3: Hbb-b1 (hemoglobin, beta adult major chain)", "setting": "[1]; upregulated, IMAGE: 518979, hybridizations #1-#4, listed as ATFp2", "result": "2.8994 and 2.9099 and 2.4766 and 2.5621"}, {"measurement": "Ratio ATFp2-Cy5 vs parental control-Cy3: D0H4S114 (DNA segment, human D4S114)", "setting": "[1]; upregulated, IMAGE: 535754, hybridizations #1-#4, listed as ATFp2", "result": "3.0625 and 3.0736 and 4.2117 and 3.5432"}, {"measurement": "Ratio ATFp2-Cy5 vs parental control-Cy3: Scyb13 (small inducible cytokine subfamily B (Cys-X-Cys), member 13)", "setting": "[1]; upregulated, IMAGE: 596683, hybridizations #1-#4, listed as ATFp2", "result": "3.6935 and 3.7069 and 4.4104 and 4.1619"}, {"measurement": "Ratio ATFp2-Cy5 vs parental control-Cy3: C85356 (expressed sequence C85356)", "setting": "[1]; upregulated, IMAGE: 776163, hybridizations #1-#4, listed as ATFp2", "result": "6.2407 and 6.2633 and 5.4673 and 4.7632"}, {"measurement": "Ratio ATFp2-Cy5 vs parental control-Cy3: ESTs", "setting": "[1]; upregulated, IMAGE: 809168, hybridizations #1-#4, listed as ATFp2", "result": "2.6457 and 2.6552 and 2.6858 and 2.3889"}, {"measurement": "Ratio ATFp2-Cy5 vs parental control-Cy3: Mme (membrane metallo endopeptidase)", "setting": "[1]; upregulated, IMAGE: 849871, hybridizations #1-#4, listed as ATFp2", "result": "4.8477 and 4.8652 and 4.8096 and 4.5247"}, {"measurement": "Ratio ATFp2-Cy5 vs parental control-Cy3: Ogn (osteoglycin)", "setting": "[1]; upregulated, IMAGE: 902951, hybridizations #1-#4, listed as ATFp2", "result": "2.7606 and 2.7705 and 2.7398 and 2.3263"}, {"measurement": "Ratio ATFp2-Cy5 vs parental control-Cy3: RIKEN cDNA 1110068L01 gene", "setting": "[1]; upregulated, IMAGE: 960604, hybridizations #1-#4, listed as ATFp2", "result": "2.7162 and 2.7260 and 3.6427 and 3.9752"}, {"measurement": "Ratio ATFp2-Cy5 vs parental control-Cy3: Akr1c13 (aldo-keto reductase family 1, member C13)", "setting": "[1]; upregulated, IMAGE: 1052178, hybridizations #1-#4, listed as ATFp2", "result": "3.6319 and 3.6450 and 3.4859 and 3.4284"}, {"measurement": "Ratio ATFp2-Cy5 vs parental control-Cy3: Tna (tetranectin (plasminogen-binding protein))", "setting": "[1]; upregulated, IMAGE: 1068748, hybridizations #1-#4, listed as ATFp2", "result": "5.0430 and 5.0612 and 4.9219 and 4.6123"}, {"measurement": "Ratio ATFp2-Cy5 vs parental control-Cy3: Top1 (topoisomerase (DNA) I)", "setting": "[1]; upregulated, IMAGE: 1107479, hybridizations #1-#4, listed as ATFp2", "result": "2.6799 and 2.6896 and 3.4635 and 3.3665"}, {"measurement": "Ratio ATFp2-Cy5 vs parental control-Cy3: Il1b (interleukin 1 beta)", "setting": "[1]; upregulated, IMAGE: 1139544, hybridizations #1-#4, listed as ATFp2", "result": "2.5423 and 2.5514 and 3.4806 and 3.3033"}, {"measurement": "Ratio ATFp2-Cy5 vs parental control-Cy3: Igfbp2 (insulin-like growth factor binding protein 2)", "setting": "[1]; upregulated, IMAGE: 1277469, hybridizations #1-#4, listed as ATFp2", "result": "3.2649 and 3.2767 and 3.3268 and 3.0043"}, {"measurement": "Ratio ATFp2-Cy5 vs parental control-Cy3: Igj (immunoglobulin joining chain)", "setting": "[1]; upregulated, IMAGE: 1277614, hybridizations #1-#4, listed as ATFp2", "result": "3.0715 and 3.0826 and 3.4986 and 4.0870"}, {"measurement": "Ratio ATFp2-Cy5 vs parental control-Cy3: Sp3 (trans-acting transcription factor 3)", "setting": "[1]; upregulated, IMAGE: 1399769, hybridizations #1-#4, listed as ATFp2", "result": "2.3816 and 2.3902 and 3.1712 and 3.6075"}, {"measurement": "Ratio ATFp2-Cy5 vs parental control-Cy3: Efemp1 (epidermal growth factor-containing fibulin)", "setting": "[1]; upregulated, IMAGE: 1480170, hybridizations #1-#4, listed as ATFp2", "result": "2.6354 and 2.6449 and 2.6270 and 2.3980"}, {"measurement": "Ratio ATFp2-Cy5 vs parental control-Cy3: Lum (lumican)", "setting": "[1]; upregulated, IMAGE: 2101997, hybridizations #1-#4, listed as ATFp2", "result": "2.5956 and 2.6050 and 2.6414 and 2.8732"}, {"measurement": "TRE-Luc activity", "setting": "[2]", "result": "marked increase"}]}]}
